One assay deals with T1, M1 muscarinic receptor (Homo sapiens, UniProt P11229).
T1 construct: expressed in transfected cells; host or cells: CHO (M1-CHO)
T1 sequence (P11229 1-460): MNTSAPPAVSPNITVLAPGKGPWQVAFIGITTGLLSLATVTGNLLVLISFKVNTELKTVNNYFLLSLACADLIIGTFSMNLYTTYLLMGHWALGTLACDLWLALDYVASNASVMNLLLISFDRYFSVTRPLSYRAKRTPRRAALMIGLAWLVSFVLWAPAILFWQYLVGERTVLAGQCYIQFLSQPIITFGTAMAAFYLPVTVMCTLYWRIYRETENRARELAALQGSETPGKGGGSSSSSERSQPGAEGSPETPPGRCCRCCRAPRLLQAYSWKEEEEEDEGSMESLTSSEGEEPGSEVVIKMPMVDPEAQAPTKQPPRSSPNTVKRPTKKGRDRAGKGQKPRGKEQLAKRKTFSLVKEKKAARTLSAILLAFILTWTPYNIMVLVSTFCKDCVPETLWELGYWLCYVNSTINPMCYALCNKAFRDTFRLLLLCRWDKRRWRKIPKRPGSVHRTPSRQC
Nature of the assay: Functional mobilization of intracellular calcium (FLIPR), M1-CHO cells. The class given is cell-based. The conditions noted are these: for Emax: 100% efficacy is the maximum response obtained with the Carbachol control; for M1 Activity: CHO cells expressing M1, calcium mobilization. The method in brief: (§1)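 Recombinant CHO cells loaded with Fluo-3 AM or Calcium 3 dye; fluorescence recorded 60 s on FLIPR in pH 7.4 buffer with 1 mM probenecid, 0.5% DMSO. Agonist mode: compound alone; antagonist mode: 15 min preincubation (or co-application) then carbachol at EC80. Efficacy relative to maximal carbachol response.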
In general terms: Calcium assays in cells follow changes in intracellular calcium, usually with a dye or a luminescent sensor.

A further assay concerns the target T2, M4 muscarinic receptor (Homo sapiens, UniProt P08173).
T2 construct: expressed in transfected cells; host or cells: CHO (M4-CHO)
T2 sequence (P08173 1-479): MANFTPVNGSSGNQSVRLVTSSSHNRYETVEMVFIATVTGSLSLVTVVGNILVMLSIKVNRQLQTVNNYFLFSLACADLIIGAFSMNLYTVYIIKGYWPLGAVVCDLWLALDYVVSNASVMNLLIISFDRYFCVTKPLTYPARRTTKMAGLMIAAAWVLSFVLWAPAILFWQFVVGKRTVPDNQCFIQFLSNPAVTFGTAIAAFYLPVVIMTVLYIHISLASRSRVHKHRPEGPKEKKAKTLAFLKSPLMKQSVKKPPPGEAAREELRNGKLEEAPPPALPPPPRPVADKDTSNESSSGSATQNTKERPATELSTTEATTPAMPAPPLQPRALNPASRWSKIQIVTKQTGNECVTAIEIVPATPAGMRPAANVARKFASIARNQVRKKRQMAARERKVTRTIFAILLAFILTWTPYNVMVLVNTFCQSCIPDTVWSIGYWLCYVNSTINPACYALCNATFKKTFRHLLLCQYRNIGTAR
Nature of the assay: Functional mobilization of intracellular calcium (FLIPR), M4-CHO cells. The class given is cell-based. The conditions noted are these: for Emax: 100% efficacy is the maximum response obtained with the Carbachol control; for M4 Activity: CHO cells expressing M4, calcium mobilization. The method in brief:
as §1

This note sets out measurements from patent publication US8263605B2, “Modulators of muscarinic receptors” (Vertex Pharmaceutical Incorporated, priority 2006, dated 2012).

Some results are limits rather than exact numbers.

For `CCCOC(=O)N1CCC(N2CCC3(CC2)CN(C(=O)N(C)C)c2ccccc23)CC1` [compound 40], at M1 muscarinic receptor, the Emax – broadly, the maximal effect, on the per cent scale that the assay sets – lay within 25 to 100% and the “M1 Activity” value is recorded as “+++ (activity was measured to be less than 2.0 μM)”. At M4 muscarinic receptor, the Emax fell in the range of 25 to 100% and the “M4 Activity” value is “+++ (activity was measured to be less than 2.0 μM)”.
Take `Cc1cnc(N2CCC(N3CCC4(CC3)CN(C(=O)N(C)C)c3ccccc34)CC2)s1` [compound 116]: on M1 muscarinic receptor, the Emax is less than 25% and the “M1 Activity” value is “+ (activity was measured to be greater than 10.0 μM)”. Also, on M4 muscarinic receptor, the Emax is less than 25% and the “M4 Activity” value is listed as “+ (activity was measured to be greater than 10.0 μM)”.
With `CN(C)C(=O)N1CCC2(CCN(C3CCNCC3)CC2)c2ccccc21` [compound 33], on M1 muscarinic receptor, the Emax was less than 25% and the “M1 Activity” value is reported as “+ (activity was measured to be greater than 10.0 μM)”. At M4 muscarinic receptor, the Emax is less than 25% and the “M4 Activity” value is “+ (activity was measured to be greater than 10.0 μM)”.
As for `CC(C)OC(=O)N1CCCC(N2CCC3(CC2)CN(C(=O)N(C)C)c2ccccc23)CC1` (centres unmarked) [compound 70], at M1 muscarinic receptor, the Emax lay in the range of 25 to 100% and the “M1 Activity” value is recorded as “++ (activity was measured to be from 2.0 μM to 10.0 μM)”. For the same molecule, on M4 muscarinic receptor, the Emax is 25 to 100% and the “M4 Activity” value is on record as “+++ (activity was measured to be less than 2.0 μM)”.
In the case of `CN(C)C(=O)N1CC2(CCN(C3CC4CCC(C3)N4C(=O)OCC(F)F)CC2)c2ccccc21` (centres unmarked) [compound 49], on M1 muscarinic receptor, the maximal effect (Emax) was 25 to 100% and the “M1 Activity” value is given as “+++ (activity was measured to be less than 2.0 μM)”. Besides, on M4 muscarinic receptor, the Emax is 25 to 100% and the “M4 Activity” value is reported as “+++ (activity was measured to be less than 2.0 μM)”.
For `C#CCOC(=O)N1C2CCC1CC(N1CCC3(CCN(C(=O)N(C)C)c4ccccc43)CC1)C2` (centres unmarked) [Compound No. 28, prop-2-ynyl 3-(1′-(dimethylcarbamoyl)-2′,3′-dihydro-1′H-spiro[piperidine-4,4′-quinoline]-1-yl)-8-azabicyclo[3.2.1]octane-8-carboxylate], at M1 muscarinic receptor, the Emax was 25 to 100% and the “M1 Activity” value was “+++ (activity was measured to be less than 2.0 μM)”. In addition, at M4 muscarinic receptor, the Emax was 25 to 100% and the “M4 Activity” value is “+++ (activity was measured to be less than 2.0 μM)”.
On to `CC#CCOC(=O)N1C2CCC1CC(N1CCC3(CC1)CN(C(=O)N(C)C)c1ccccc13)C2` (centres unmarked) [compound 95], for which, at M1 muscarinic receptor, the Emax lay in the range of 25 to 100% and the “M1 Activity” value is given as “+++ (activity was measured to be less than 2.0 μM)”. Further, at M4 muscarinic receptor, the Emax lay within 25 to 100% and the “M4 Activity” value is “+++ (activity was measured to be less than 2.0 μM)”.
`Cc1cncc(N2CCC(N3CCC4(CCN(C(=O)N(C)C)c5ccccc54)CC3)CC2)n1` [Compound No. 9, N,N-dimethyl-1-(1-(6-methylpyrazin-2-yl)piperidin-4-yl)-2′,31-dihydrospiro[piperidine-4,4′-quinoline]-1′-carboxamide]: on M1 muscarinic receptor, the Emax lay within 25 to 100% and the “M1 Activity” value is reported as “+++ (activity was measured to be less than 2.0 μM)”. Moreover, on M4 muscarinic receptor, the Emax fell in the range of 25 to 100% and the “M4 Activity” value was “+++ (activity was measured to be less than 2.0 μM)”.
For the molecule `CCC#CCOC(=O)N1CCC(N2CCC3(CC2)CN(C(=O)N(C)C)c2ccccc23)CC1` [compound 93], at M1 muscarinic receptor, the Emax lay within 25 to 100% and the “M1 Activity” value was “+++ (activity was measured to be less than 2.0 μM)”. At M4 muscarinic receptor, the maximum response (Emax) is 25 to 100% and the “M4 Activity” value is “+++ (activity was measured to be less than 2.0 μM)”.
For `CCOC(=O)N1CCCC(N2CCC3(CC2)CN(C(=O)N(C)C)c2ccccc23)CC1` (centres unmarked) [compound 68], at M1 muscarinic receptor, the Emax was 25 to 100% and the “M1 Activity” value is listed as “+++ (activity was measured to be less than 2.0 μM)”. For the same molecule, at M4 muscarinic receptor, the Emax was greater than 100% and the “M4 Activity” value is given as “+++ (activity was measured to be less than 2.0 μM)”.
Consider `CCC#CCOC(=O)N1CCCC(N2CCC3(CC2)CN(C(=O)N(C)C)c2ccccc23)CC1` (centres unmarked) [compound 106], for which, at M1 muscarinic receptor, the Emax lay in the range of 25 to 100% and the “M1 Activity” value is on record as “+++ (activity was measured to be less than 2.0 μM)”. On M4 muscarinic receptor, the Emax lay in the range of 25 to 100% and the “M4 Activity” value is “+++ (activity was measured to be less than 2.0 μM)”.
As for `CN(C)C(=O)N1CC2(CCN(C3CCN(c4cncc(Cl)n4)CC3)CC2)c2ccccc21` [compound 77], at M1 muscarinic receptor, the Emax is 25 to 100% and the “M1 Activity” value is recorded as “+++ (activity was measured to be less than 2.0 μM)”. In addition, on M4 muscarinic receptor, the Emax was 25 to 100% and the “M4 Activity” value is recorded as “+++ (activity was measured to be less than 2.0 μM)”.
Consider `CC(=O)N1CCC2(CCN(C3CCN(c4nc(C)cs4)CC3)CC2)c2ccccc21` [compound 25], for which, at M1 muscarinic receptor, the Emax was in the range of 25 to 100% and the “M1 Activity” value is listed as “++ (activity was measured to be from 2.0 μM to 10.0 μM)”. In addition, at M4 muscarinic receptor, the Emax was 25 to 100% and the “M4 Activity” value is given as “++ (activity was measured to be from 2.0 μM to 10.0 μM)”.
`CCCOC(=O)N1C2CCC1CC(N1CCC3(CC1)CN(C(=O)N(C)C)c1ccccc13)C2` (centres unmarked) [compound 47]: on M1 muscarinic receptor, the maximal effect (Emax) was in the range of 25 to 100% and the “M1 Activity” value was “+++ (activity was measured to be less than 2.0 μM)”. Moreover, at M4 muscarinic receptor, the Emax was 25 to 100% and the “M4 Activity” value is given as “+++ (activity was measured to be less than 2.0 μM)”.
As for `C#CCOC(=O)N1CCC(N2CCC3(CCN(C(C)=O)c4ccccc43)CC2)CC1` [compound 12], at M1 muscarinic receptor, the Emax was greater than 100% and the “M1 Activity” value is “+++ (activity was measured to be less than 2.0 μM)”. In addition, on M4 muscarinic receptor, the Emax lay in the range of 25 to 100% and the “M4 Activity” value is “+++ (activity was measured to be less than 2.0 μM)”.
Consider `CC(C)OC(=O)N1CC[C@@H](CN2CCC3(CC2)CN(C(=O)N(C)C)c2ccccc23)C1` [compound 56], for which, on M1 muscarinic receptor, the Emax fell in the range of 25 to 100% and the “M1 Activity” value is on record as “++ (activity was measured to be from 2.0 μM to 10.0 μM)”. For the same molecule, at M4 muscarinic receptor, the Emax was in the range of 25 to 100% and the “M4 Activity” value is recorded as “+++ (activity was measured to be less than 2.0 μM)”.
`Cc1nsc(N2CC[C@@H](CN3CCC4(CC3)CN(C(=O)N(C)C)c3ccccc34)C2)n1` [compound 85]: on M1 muscarinic receptor, the Emax lay in the range of 25 to 100% and the “M1 Activity” value is listed as “+++ (activity was measured to be less than 2.0 μM)”. Further, at M4 muscarinic receptor, the Emax is greater than 100% and the “M4 Activity” value is reported as “+++ (activity was measured to be less than 2.0 μM)”.
For `CC#CCOC(=O)N1CC[C@@H](CN2CCC3(CC2)CN(C(=O)N(C)C)c2ccccc23)C1` [compound 98], on M1 muscarinic receptor, the Emax is 25 to 100% and the “M1 Activity” value is listed as “+++ (activity was measured to be less than 2.0 μM)”. Also, on M4 muscarinic receptor, the Emax lay within 25 to 100% and the “M4 Activity” value was “+++ (activity was measured to be less than 2.0 μM)”.
On to `CCOC(=O)N1C2CCC1CC(N1CCC3(CCN(C(=O)N(C)C)c4ccccc43)CC1)C2` (centres unmarked) [compound 27], for which, at M1 muscarinic receptor, the Emax was in the range of 25 to 100% and the “M1 Activity” value is given as “+++ (activity was measured to be less than 2.0 μM)”. At M4 muscarinic receptor, the Emax was 25 to 100% and the “M4 Activity” value was “+++ (activity was measured to be less than 2.0 μM)”.
With `CCOC(=O)N1CCC(N2CCC3(CCN(C(=O)N(C)C)c4ccccc43)CC2)CC1` [compound 3], on M1 muscarinic receptor, the Emax was 25 to 100% and the “M1 Activity” value was “+++ (activity was measured to be less than 2.0 μM)”. Moreover, at M4 muscarinic receptor, the Emax was greater than 100% and the “M4 Activity” value is recorded as “+++ (activity was measured to be less than 2.0 μM)”.
